Measurements published in ChEMBL document CHEMBL1158301, “Isolation of guaianoid pigments from the gorgonian Calicogorgia granulosa” (1996).

Key:
Assay type in all cases: functional
Settings in all cases: read-out: IZ
[1] = system: Escherichia coli; test: Antimicrobial activity against Escherichia coli at 25 ug/mL by paper disk assay
[2] = system: Bacillus subtilis; test: Antimicrobial activity against Bacillus subtilis at 25 ug/mL by paper disk assay
[3] = system: Candida albicans; test: Antimicrobial activity against Candida albicans at 25 ug/mL by paper disk assay

Compound	zone of inhibition at 25 µg/mL [1] [mm]	zone of inhibition at 25 µg/mL [2] [mm]	zone of inhibition at 25 µg/mL [3] [mm]
Cc1cc(-c2cc(C)c3cc(C(C)C)ccc(C)c2-3)c2c(C)ccc(C(C)C)cc1-2	3	8	5
Cc1cc(Cc2cc(C)c3cc(C(C)C)ccc(C)c2-3)c2c(C)ccc(C(C)C)cc1-2	3	3	–
